Results on one molecule are retold here after patent publication US20210330756A1, “Acetylation of Miro1” (University of South Carolina, priority 2020, published 2021).

One experiment deals with Ac-α-tubulin. Put plainly: Immunoblotting for Ac-α-tubulin in adult DRG neurons. It is filed as cell-based, rat. How it is done:
We tested for this specificity in the adult DRG neurons from above by immunoblotting. […] (A) Number of mitochondria in growth cones after exposing DRG cultures to 10 μM TubA versus vehicle (control) for 1 h is shown as average fold-change in number of mitochondria per growth cone±SEM (n=13 axons across three culture preparations; *, P≤0.05 by one-way ANOVA with Bonferroni post hoc analysis). (B) Representative EMs of Remak bundles (arrowheads) in naive Sciatic nerve and nerves after 2 h vehicle (DMSO) or TubA injection are shown. Arrows indicate mitochondria in the unmyelinated axons. Note that a Schwann cell nucleus (asterisk) is seen in the Remak bundle for DMSO image but not the other two micrographs (scale bar=3 μm). (C) Quantification of number of mitochondria per unmyelinated axon from EM images as in B is shown as average±SEM (n≥5; *****, P≤0.0001 by one-way ANOVA with Bonferroni post hoc analysis). (D-F) Quantification for indicated parameters for mitochondrial transport in sciatic nerve in vivo using tetramethylrhodamine, ethyl ester, perchlorate to visualize mitochondria is shown.
For immunoblotting, protein lysates or immunoprecipitates were denatured by boiling in Laemmli sample buffer, fractionated by SDS-PAGE, and transferred to nitrocellulose membranes. Blots were blocked for 1 h at room temperature with 5% nonfat dry milk in TBS with 0.1% Tween 20 (TBST). Primary antibodies diluted in 5% BSA in TBST were added to the membranes and incubated overnight at 4° C. with rocking. Primary antibodies consisted of rabbit anti-Myc (1:2,000; Cell Signaling; 71D10), rabbit anti-RHOT1 antibody (1:1,000; Aviva Systems Biology; ARP44817 P050), rabbit anti-HDAC6 antibody (1:2,000; Cell Signaling; 7558), rabbit anti-ERK1 (1:5,000; Abcam; ab32537), and affinity-purified custom rabbit anti-Miro1-AcK105 (1:2,500; Twiss laboratory, see above) antibodies. For the anti-Miro1-AcK105 antibody, preimmune and test-bleed sera were used at 1:1,000 dilutions to initially evaluate for specificity. […] Signals were detected using ECL Prime (GE Healthcare) after extensive washing.

The subject of experiment [1] is distal axons and growth cones of DRG neurons. Put plainly: CALI of Mito-KR to ablate mitochondria in distal axons of DRG cultures. Format: cell-based, rat. The source says: For this, we turned to chromophore-assisted light inactivation (CALI) to ablate mitochondria from distal axons of DRG cultures expressing mitochondrial-targeted Killer Red (Mito-KR) protein. CALI of KR protein generates reactive oxygen species (ROS) to ˜1,000-fold higher than the fluorescent emission eGFP generates (Sano et al., 2014). Increased ROS production upon CALI of Mito-KR protein leads to mitochondrial damage and ablation of mitochondrial function, including the axonal mitochondria targeted in our experiments (Shibuya and Tsujimoto, 2012; Spillane et al., 2013).
For mitochondrial ablation by CALI, DRG cultures expressing Mito-KR and BFP for 48 h were imaged with the same confocal microscope. Mito-KR was activated with an argon laser at 514 nm continuously for 30 s until there was no detectable signal (100% laser power). After activation, 50 μm of the distal axon shaft and the growth cone were imaged every 30 s over 16 min using 585- and 405-nm laser lines (13 and 15.3% power, respectively).
Vesicle trafficking was quantified using differential ImageJ Difference Tracker Plug-in (Andrews et al., 2010). 50-80-μm long unbranched axon segments at approximately the mid-region between growth cone and cell body were analyzed. Kymographs were generated using ImageJ Kymograph Plug-in. […] The distance between the growth tip at end of the post-CALI sequence and the pre-CALI baseline was measured using LAS-X software. Movement of ≥0.5 μm toward the axon shaft was counted as retracted. Fluorescence emission of the Mito-KR post-CALI was analyzed using ImageJ. For normalizing intensities across FRAP image sets, fluorescence intensity at each time point was scaled using the LAS-X FRAP module so that the residual fluorescence signal at t=0 min (post-bleach) was set at 0 and the prebleach intensity was set at 100% for each bleached ROI. For axon shaft FRAP analyses, each 50-μm bleached ROI was divided into […], and the fluorescence intensity recovery was measured as described above. […] A minimum of 75 unmyelinated axons was analyzed for each nerve. […]

The mark [2] stands for this setting: laminin, TubA 10 μM 1 h or siRNA cotransfection, vs vehicle/siControl.

The structures appear in SMILES notation.

As for `CN1CCc2c(c3ccccc3n2Cc2ccc(C(=O)NO)cc2)C1` [TubA, tubastatin], the Ac-α-tubulin levels result in the experiment with Ac-α-tubulin (1 μM), in the experiment on Ac-α-tubulin (10 μM) and with Ac-α-tubulin (100 μM) was “clear increase in Ac-α-tubulin levels” throughout. Further, in experiment [1] (MAG-Fc + 10 μM TubA), the “effect on MAG-Fc-dependent decrease in Mito-KR recovery after CALI” value was “reversed”. For the same molecule, the “growth cone retraction after CALI mitochondrial ablation” value in experiment [1] (setting [2]) is “majority of the TubA-treated cultures showed no growth cone retraction”. Also, the “recovery of Mito-KR fluorescence in ROI after CALI” value in experiment [1] (setting [2]) was “significant recovery of mitochondrial fluorescence”.
